{
  "source": "patent US11242537B2",
  "about": "“Method for improving sensitivity of plant to gibberellin inhibitor and use thereof” (CHINA AGRICULTURAL UNIVERSITY, priority 2017, dated 2022)",
  "key": {"[1]": {"system": "HRP::ga1-1", "assay": "Effect of DPC on plant height of transgenic Arabidopsis thaliana (step 4.1), HRP::ga1-1", "format": "in vivo", "conditions": "for Plant height reduction rate / Plant height: HRP::ga1-1; for Plant height reduction rate: relative to 0 mg/L DPC-treated plant; for Plant height: cultured 12 days", "method": "(§1) In the following examples, the growth conditions of Arabidopsis thaliana are: culturing in a growth chamber with a photoperiod of 16 h light/8 h dark, a light intensity of 60 μmol/m^2/s, a humidity of 60%-70%, and a temperature of 22° C.\n(§2) The experiment was repeated three times, and the specific steps of each repeated experiment were as follows:\n(§3) Thirty homozygous line plants of the HRP::ga1-1 of step 2 were randomly selected and randomly divided into three groups, ten plants in each group. On the 33rd day of sowing (the day of sowing was recorded as the first day of sowing), the plants of these three groups were treated as follows, respectively one group was sprayed with water (i.e., 0 mg/L DPC solution) and cultured for 12 days to obtain untreated HRP::ga1-1; one group was sprayed with 30 mg/L DPC solution and cultured for 12 days to obtain 30 mg/L DPC-treated HRP::ga1-1; the last group was sprayed with 500 mg/L aqueous DPC solution and cultured for 12 days to obtain 500 mg/L DPC-treated HRP::ga1-1.\n(§4) The plant heights of the above Arabidopsis thaliana before the treatment (FIG. 1) and after different treatments (FIG. 2 and Table 2) were measured."}, "[2]": {"system": "ZmCPS::ga1-1", "assay": "Effect of DPC on plant height (step 4.1), ZmCPS::ga1-1", "format": "in vivo, Arabidopsis thaliana", "conditions": "for Plant height: 12 days; for Plant height reduction rate: relative to 0 mg/L", "method": "as §1, §2, §3\n(§5) According to the above method, the homozygous line plants of the HRP::ga1-1 were replaced with the homozygous line plants of the HRP::ga1-5, the homozygous line plants of the ZmCPS::ga1-1, the homozygous line plants of the ZmCPS::ga1-5, the homozygous line plants of the PsSuper1300::ga1-1 and the homozygous line plants of the PsSuper1300::ga1-5 respectively, the other steps were unchanged, and untreated HRP::ga1-5, 30 mg/L DPC-treated HRP::ga1-5, 500 mg/L DPC-treated HRP::ga1-5, untreated ZmCPS::ga1-1, 30 mg/L DPC-treated ZmCPS::ga1-1, 500 mg/L DPC-treated ZmCPS::ga1-1, untreated ZmCPS::ga1-5, 30 mg/L DPC-treated ZmCPS::ga1-5, 500 mg/L DPC-treated ZmCPS::ga1-5, untreated PsSuper1300::ga1-1, 30 mg/L DPC-treated PsSuper1300::ga1-1, 500 mg/L DPC-treated PsSuper1300::ga1-1, untreated PsSuper1300::ga1-5, 30 mg/L DPC-treated PsSuper1300::ga1-5 and 500 mg/L DPC-treated PsSuper1300::ga1-5 were obtained, respectively.\nas §4"}, "[3]": {"system": "pSuper1300::ga1-1", "assay": "Effect of DPC on plant height (step 4.1), empty vector pSuper1300::ga1-1", "format": "in vivo, Arabidopsis thaliana", "conditions": "for Plant height: 12 days; for Plant height reduction rate: relative to 0 mg/L", "method": "as §1, §2, §3, §5, §4"}, "[4]": {"system": "ga1-1", "assay": "Effect of DPC on plant height (step 4.1), mutant ga1-1", "format": "in vivo, Arabidopsis thaliana", "conditions": "for Plant height: 12 days; for Plant height reduction rate: relative to 0 mg/L", "method": "as §1, §2\nWhen the ga1-1 was cultured to the 33rd day of sowing (the day of sowing was recorded as the first day of sowing), 30 plants were taken and randomly divided into three groups, ten plants in each group and the plants of these three groups were treated as follows, respectively: one group was sprayed with 0 mg/L DPC solution and cultured for 12 days to obtain untreated ga1-1; one group was sprayed with 30 mg/L aqueous DPC solution and cultured for 12 days to obtain 30 mg/L DPC-treated ga1-1; the last group was sprayed with 500 mg/L DPC solution and cultured for 12 days to obtain 500 mg/L DPC-treated ga1-1.\nas §4"}, "[5]": {"system": "HRP::ga1-5", "assay": "Effect of DPC on plant height (step 4.1), HRP::ga1-5", "format": "in vivo, Arabidopsis thaliana", "conditions": "for Plant height / Plant height reduction rate: HRP::ga1-5; for Plant height: 12 days; for Plant height reduction rate: relative to 0 mg/L", "method": "as §1, §2, §3, §5, §4"}, "[6]": {"system": "ZmCPS::ga1-5", "assay": "Effect of DPC on plant height (step 4.1), ZmCPS::ga1-5", "format": "in vivo, Arabidopsis thaliana", "conditions": "for Plant height: 12 days", "method": "as §1, §2, §3, §5, §4"}},
  "data": [
    {"smiles": "C[N+]1(C)CCCCC1.[Cl-]", "note": "[DPC, 1,1-dimethylpiperidinium chloride]", "values": [
      {"measurement": "Plant height of HRP::ga1-1 as multiple of correspondingly treated ZmCPS::ga1-1", "setting": "[1]; 30 mg/L DPC", "result": 0.68, "unit": "times"},
      {"measurement": "Plant height of HRP::ga1-1 as multiple of correspondingly treated ga1-1", "setting": "[1]; 30 mg/L DPC", "result": 2.71, "unit": "times"},
      {"measurement": "Plant height reduction rate of HRP::ga1-1 as multiple of that of ga1-1", "setting": "[1]; 30 mg/L DPC", "result": 2.49, "unit": "times"},
      {"measurement": "Plant height of HRP::ga1-1 as multiple of correspondingly treated ZmCPS::ga1-1", "setting": "[1]; 500 mg/L DPC", "result": 0.41, "unit": "times"},
      {"measurement": "Plant height of HRP::ga1-1 as multiple of correspondingly treated ga1-1", "setting": "[1]; 500 mg/L DPC", "result": 1.71, "unit": "times"},
      {"measurement": "Plant height reduction rate of HRP::ga1-1 as multiple of that of ga1-1", "setting": "[1]; 500 mg/L DPC", "result": 3.47, "unit": "times"},
      {"measurement": "Plant height reduction rate", "setting": "[1]; 30 mg/L DPC", "result": 33.92, "unit": "%"},
      {"measurement": "Plant height reduction rate", "setting": "[1]; 500 mg/L DPC", "result": 60.18, "unit": "%"},
      {"measurement": "Plant height", "setting": "[1]; sprayed with 30 mg/L DPC on 33rd day of sowing", "result": "11.2 ± 0.24", "unit": "cm"},
      {"measurement": "Plant height", "setting": "[1]; sprayed with 500 mg/L DPC on 33rd day of sowing", "result": "6.75 ± 0.38", "unit": "cm"},
      {"measurement": "Plant height", "setting": "[2]; 30 mg/L DPC spray", "result": "16.52 ± 0.31", "unit": "cm"},
      {"measurement": "Plant height reduction rate", "setting": "[2]; 30 mg/L DPC", "result": "−0.12", "unit": "%"},
      {"measurement": "Plant height", "setting": "[2]; 500 mg/L DPC spray", "result": "16.45 ± 0.21", "unit": "cm"},
      {"measurement": "Plant height reduction rate", "setting": "[2]; 500 mg/L DPC", "result": 0.30, "unit": "%"},
      {"measurement": "Effect of DPC on plant height (in words)", "setting": "[2]; 30 and 500 mg/L DPC", "result": "no effect"},
      {"measurement": "Plant height", "setting": "[3]; 30 mg/L DPC spray", "result": "4.33 ± 0.27", "unit": "cm"},
      {"measurement": "Plant height reduction rate", "setting": "[3]; 30 mg/L DPC", "result": 4.84, "unit": "%"},
      {"measurement": "Plant height", "setting": "[3]; 500 mg/L DPC spray", "result": "3.98 ± 0.17", "unit": "cm"},
      {"measurement": "Plant height reduction rate", "setting": "[3]; 500 mg/L DPC", "result": 12.53, "unit": "%"},
      {"measurement": "Plant height", "setting": "[4]; 30 mg/L DPC spray", "result": "4.13 ± 0.25", "unit": "cm"},
      {"measurement": "Plant height reduction rate", "setting": "[4]; 30 mg/L DPC", "result": 13.60, "unit": "%"},
      {"measurement": "Plant height", "setting": "[4]; 500 mg/L DPC spray", "result": "3.95 ± 0.10", "unit": "cm"},
      {"measurement": "Plant height reduction rate", "setting": "[4]; 500 mg/L DPC", "result": 17.36, "unit": "%"},
      {"measurement": "Plant height of HRP::ga1-5 as multiple of correspondingly treated ZmCPS::ga1-5", "setting": "[5]; 30 mg/L DPC", "result": 0.64, "unit": "times"},
      {"measurement": "Plant height of HRP::ga1-5 as multiple of correspondingly treated ga1-5", "setting": "[5]; 30 mg/L DPC", "result": 1.65, "unit": "times"},
      {"measurement": "Plant height reduction rate of HRP::ga1-5 as multiple of that of ga1-5", "setting": "[5]; 30 mg/L DPC", "result": 4.68, "unit": "times"},
      {"measurement": "Plant height of HRP::ga1-5 as multiple of correspondingly treated ZmCPS::ga1-5", "setting": "[5]; 500 mg/L DPC", "result": 0.38, "unit": "times"},
      {"measurement": "Plant height of HRP::ga1-5 as multiple of correspondingly treated ga1-5", "setting": "[5]; 500 mg/L DPC", "result": 1.00, "unit": "times"},
      {"measurement": "Plant height reduction rate of HRP::ga1-5 as multiple of that of ga1-5", "setting": "[5]; 500 mg/L DPC", "result": 6.66, "unit": "times"},
      {"measurement": "Plant height", "setting": "[5]; 30 mg/L DPC spray", "result": "10.80 ± 0.43", "unit": "cm"},
      {"measurement": "Plant height reduction rate", "setting": "[5]; 30 mg/L DPC", "result": 31.99, "unit": "%"},
      {"measurement": "Plant height", "setting": "[5]; 500 mg/L DPC spray", "result": "6.41 ± 0.18", "unit": "cm"},
      {"measurement": "Plant height reduction rate", "setting": "[5]; 500 mg/L DPC", "result": 59.63, "unit": "%"},
      {"measurement": "Plant height", "setting": "[6]; 30 mg/L DPC spray", "result": "16.79 ± 0.13", "unit": "cm"},
      {"measurement": "Plant height reduction rate", "setting": "[6]; 30 mg/L DPC, relative to 0 mg/L", "result": 0.06, "unit": "%"},
      {"measurement": "Plant height", "setting": "[6]; 500 mg/L DPC spray", "result": "16.66 ± 0.31", "unit": "cm"}
    ]}
  ]
}
